Measured values published in article PMC8400955 (Pharmaceuticals, 2021).

Key:
[1] = 4-week repeat-dose toxicity/TK study in dogs; assay type: in vivo, beagle dogs; settings: for AUC(0-t) / Cmax / Tmax: beagle, dog, plasma, po
Protocol: The TK of ZB716 was investigated in a 4-week repeat-dose toxicity study in dogs. Groups of dogs (n = 3/sex/group) were orally administered ZB716 (5% EtOH, 15% PG, 5% Solutol, and 75% of 40% HP-β-CD in DI water) at dose levels of 25, 100, and 200 mg/kg/day for 4 weeks. The plasma concentration of ZB716 was measured at various times up through to 24 h post-dose on days 1 and 28. […] The lower exposure in females given 200 mg/kg/day on day 1 was likely due to emesis noted in all females in this group.
Four-to-six-week-old Sprague Dawley rats (Crl: CD (SD)) (SPF/VAF) were purchased from Beijing Vital River Laboratory Animal Technology, Co. Ltd.). Six-month-old beagle dogs were purchased from Beijing Marshall Biotechnology Co. Ltd. Animals were quarantined/acclimated for 2–6 weeks prior to dose initiation. Both Sprague Dawley rats and beagle dogs were given oral administration of ZB716 (20% PG, 5% Solutol, and 75% of 40% HP-β-CD in water) at different dose levels. After treatment with the test articles, whole blood was collected from each study animal by puncture of the tail vein (0.4 mL of whole blood from rats) and/or the peripheral vein (0.6 mL of whole blood from dogs) into tubes containing K2EDTA at each timepoint: pre-dose, and 0.5, 1, 2, 4, 8, and 24 h post-dose. The plasma samples were divided into 2 aliquots (approximately equal in volume) and stored frozen at −75 ± 15 °C within 2 h of the collection until analysis at Pharmaron, China.
The stock solution of ZB716 (5.0 mg/mL) and ZB716-d6 (1 mg/mL) in ACN:DI Water = 1:1 was prepared and stored at −20 ± 5 °C. The desired serial concentrations of working reference analyte solutions were achieved by diluting a stock analyte solution with 50% acetonitrile (0.1% formic acid) in water solution. The bioanalytical LC–MS/MS method was validated for quantitative determination of ZB716 in Sprague Dawley rat plasma and beagle dog plasma, with acceptable selectivity, sensitivity, calibration curve, precision, and accuracy. This method is applicable for the determination of ZB716 in Sprague Dawley rat plasma and beagle dog plasma, with a lower limit of quantification of 20.0 ng/mL, and an upper limit of quantification of 10,000 ng/mL.
Five microliters of diluted supernatant was injected into the LC–MS/MS system (Shimadzu LC30AD HPLC system with a SynergiTM 4 μm Fusion-RP 80 Å (50 × 2 mm) column using gradient elution and a Triple Quad 5500 mass spectrometer) for quantitative analysis. The mobile phases used were 0.1% formic acid in deionized water and 0.1% formic acid in acetonitrile. The pharmacokinetic parameters T1/2 (the biological half-life), Cmax (maximal concentration), Tmax (time at which Cmax is observed), and AUC (area under the plasma concentration–time curve) were calculated from the plasma concentration versus time data using WinNonlin (Phoenix^TM, version 8.1, Mountain View, CA, USA). All PK studies were conducted by Pharmaron in Beijing, China.

[2] = Plasma protein binding by equilibrium dialysis, dog; assay type: in vitro ADME; settings: plasma (EDTA-K2 as anticoagulant)
Protocol: (§1) The in vitro binding of ZB716 to plasma proteins was determined by equilibrium dialysis technique in mouse, rat, dog, monkey, and human plasma (EDTA-K2 as anticoagulant), over the concentration range of 0.1–10 μM. The free concentration of ZB716 was below the lower limit of quantitation at 0.1, 1, and 10 μM in human, monkey, dog, rat, and mouse plasma.
(§2) The equilibrium dialysis method was used to investigate the in vitro binding of ZB716 to human, monkey, dog, rat, and mouse plasma proteins. The dialysis phosphate buffer solution (100 mM, pH 7.4) and plasma samples containing 0.1, 1, and 10 μM of ZB716 were added to separate chambers of dialysis wells of the HTDialysis device. The dialysis plate was placed in an incubator at 37 °C with 5% CO2 at approximately 100 rpm for 6 h. After incubation, the seal was removed, and 50 μL each of post-dialysis samples was pipetted from both the buffer and plasma chambers into fresh 96-well plates. The samples were analyzed via UPLC–MS/MS. The bound fraction, unbound fraction, recovery (%), and remaining (%) were calculated by Equations (2)–(5):%Unbound = (Conc.buffer chamber/Conc.plasma chamber) × 100(2) %Bound = 100% − %Unbound (3) %Recovery = (Conc.buffer chamber + Conc.plasma chamber)/Conc.Total sample × 100 (4) %Remaining = Conc.6h/Conc.0h × 100 (5)

dog plasma proteins = test: as above; assay type: in vitro ADME; settings: for Remaining: 6 h
Protocol: as §1, §2

[3] = Plasma protein binding by equilibrium dialysis, mouse; assay type: in vitro ADME; settings: plasma (EDTA-K2 as anticoagulant)
Protocol: as §1, §2

mouse plasma proteins = test: as above; assay type: in vitro ADME; settings: for Remaining: 6 h
Protocol: as §1, §2

[4] = female, 25 mg/kg/day, day 1, PO 25 mg/kg/day, F
[5] = female, 25 mg/kg/day, day 28, PO 25 mg/kg/day, F
[6] = female, 100 mg/kg/day, day 1, PO 100 mg/kg/day, F
[7] = female, 100 mg/kg/day, day 28, PO 100 mg/kg/day, F
[8] = female, 200 mg/kg/day, day 1, PO 200 mg/kg/day, F
[9] = female, 200 mg/kg/day, day 28, PO 200 mg/kg/day, F
[10] = male, 25 mg/kg/day, day 1, PO 25 mg/kg/day, M
[11] = male, 25 mg/kg/day, day 28, PO 25 mg/kg/day, M
[12] = male, 100 mg/kg/day, day 1, PO 100 mg/kg/day, M
[13] = male, 100 mg/kg/day, day 28, PO 100 mg/kg/day, M
[14] = male, 200 mg/kg/day, day 1, PO 200 mg/kg/day, M
[15] = male, 200 mg/kg/day, day 28, PO 200 mg/kg/day, M

Q: With `C[C@]12CC[C@@H]3c4ccc(B(O)O)cc4C[C@@H](CCCCCCCCC[S+]([O-])CCCC(F)(F)C(F)(F)F)[C@H]3[C@@H]1CC[C@@H]2O` (stereo partly drawn) [ZB716, fulvestrant-3-boronic acid] as the compound, how does the AUC(0-t) [1, 4] read?
A: The AUC(0-t) was 3880 ng·h/mL.

Q: What about the Cmax [1, 4] of the same compound?
A: The Cmax was 772 ng/mL.

Q: And the Tmax [1, 4]?
A: The Tmax was 1 h.

Q: And the AUC(0-t) [1, 5]?
A: Its AUC(0-t) is 8000 ng·h/mL.

Q: What about the Cmax [1, 5] of the same compound?
A: The Cmax was 1590 ng/mL.

Q: What about the Tmax [1, 5] of the same compound?
A: The Tmax was 1 h.

Q: And the AUC(0-t) [1, 6]?
A: Its AUC(0-t) is 4490 ng·h/mL.

Q: And the Cmax [1, 6]?
A: The Cmax was 997 ng/mL.

Q: What about the Tmax [1, 6] of the same compound?
A: Its Tmax is 1 h.

Q: And the AUC(0-t) [1, 7]?
A: Its AUC(0-t) is 9650 ng·h/mL.

Q: What about the Cmax [1, 7] of the same compound?
A: Its Cmax is 1870 ng/mL.

Q: What about the Tmax [1, 7] of the same compound?
A: Its Tmax is 2 h.

Q: And the AUC(0-t) [1, 8]?
A: The AUC(0-t) was 2720 ng·h/mL.

Q: And the Cmax [1, 8]?
A: Its Cmax is 583 ng/mL.

Q: And the Tmax [1, 8]?
A: The Tmax was 2 h.

Q: And the AUC(0-t) [1, 9]?
A: The AUC(0-t) was 14900 ng·h/mL.

Q: And the Cmax [1, 9]?
A: The Cmax was 1810 ng/mL.

Q: What about the Tmax [1, 9] of the same compound?
A: Its Tmax is 2 h.

Q: What about the AUC(0-t) [1, 10] of the same compound?
A: The AUC(0-t) was 1980 ng·h/mL.

Q: And the Cmax [1, 10]?
A: The Cmax was 691 ng/mL.

Q: And the Tmax [1, 10]?
A: The Tmax was 0.5 h.

Q: And the AUC(0-t) [1, 11]?
A: Its AUC(0-t) is 4330 ng·h/mL.

Q: And the Cmax [1, 11]?
A: The Cmax was 1390 ng/mL.

Q: And the Tmax [1, 11]?
A: The Tmax was 1 h.

Q: And the AUC(0-t) [1, 12]?
A: Its AUC(0-t) is 4570 ng·h/mL.

Q: What about the Cmax [1, 12] of the same compound?
A: The Cmax was 1400 ng/mL.

Q: And the Tmax [1, 12]?
A: The Tmax was 1 h.

Q: And the AUC(0-t) [1, 13]?
A: Its AUC(0-t) is 12400 ng·h/mL.

Q: What about the Cmax [1, 13] of the same compound?
A: Its Cmax is 3340 ng/mL.

Q: What about the Tmax [1, 13] of the same compound?
A: Its Tmax is 2 h.

Q: What about the AUC(0-t) [1, 14] of the same compound?
A: Its AUC(0-t) is 7880 ng·h/mL.

Q: And the Cmax [1, 14]?
A: The Cmax was 1040 ng/mL.

Q: And the Tmax [1, 14]?
A: Its Tmax is 2 h.

Q: What about the AUC(0-t) [1, 15] of the same compound?
A: The AUC(0-t) was 11000 ng·h/mL.

Q: What about the Cmax [1, 15] of the same compound?
A: Its Cmax is 2130 ng/mL.

Q: And the Tmax [1, 15]?
A: Its Tmax is 2 h.

Q: What about the tolerability ([1]; oral once daily, doses up to 200 mg/kg/day for 28 consecutive days) of the same compound?
A: The tolerability was “tolerated”.

Q: And the recovery at 6 h, 0.1 μM ([2]; pH 7.4, 0.1 μM)?
A: Its recovery at 6 h, 0.1 μM is < 63.5%.

Q: And the recovery at 6 h, 1 μM ([2]; pH 7.4, 1 μM)?
A: Its recovery at 6 h, 1 μM is < 64.9%.

Q: What about the recovery at 6 h, 10 μM ([2]; pH 7.4, 10 μM) of the same compound?
A: Its recovery at 6 h, 10 μM is < 68.7%.

Q: What about the Bound (dog plasma proteins; 0.1 μM) of the same compound?
A: The Bound was >95.6%.

Q: What about the Remaining (dog plasma proteins; 0.1 μM) of the same compound?
A: Its Remaining is 39.1 ± 1.8%.

Q: And the Bound (dog plasma proteins; 1 μM)?
A: Its Bound is >99.6%.

Q: What about the Unbound (dog plasma proteins; 1 μM) of the same compound?
A: The Unbound was <0.373%.

Q: What about the Remaining (dog plasma proteins; 1 μM) of the same compound?
A: The Remaining was 53.2 ± 4.4%.

Q: What about the Bound (dog plasma proteins; 10 μM) of the same compound?
A: The Bound was >99.96%.

Q: And the Unbound (dog plasma proteins; 10 μM)?
A: Its Unbound is <0.0412%.

Q: What about the Remaining (dog plasma proteins; 10 μM) of the same compound?
A: The Remaining was 65.2 ± 4.3%.

Q: What about the recovery at 6 h, 0.1 μM ([3]; pH 7.4, 0.1 μM) of the same compound?
A: Its recovery at 6 h, 0.1 μM is < 96%.

Q: What about the recovery at 6 h, 1 μM ([3]; pH 7.4, 1 μM) of the same compound?
A: The recovery at 6 h, 1 μM was < 88.8%.

Q: And the recovery at 6 h, 10 μM ([3]; pH 7.4, 10 μM)?
A: Its recovery at 6 h, 10 μM is < 95%.

Q: And the Bound (mouse plasma proteins; 0.1 μM)?
A: Its Bound is >97.4%.

Q: What about the Unbound (mouse plasma proteins; 0.1 μM) of the same compound?
A: Its Unbound is <2.63%.

Q: What about the Remaining (mouse plasma proteins; 0.1 μM) of the same compound?
A: The Remaining was 98.5 ± 14.5%.

Q: What about the Bound (mouse plasma proteins; 1 μM) of the same compound?
A: Its Bound is >99.7%.

Q: What about the Unbound (mouse plasma proteins; 1 μM) of the same compound?
A: Its Unbound is <0.266%.

Q: And the Remaining (mouse plasma proteins; 1 μM)?
A: The Remaining was 92.2 ± 5.7%.

Q: And the Bound (mouse plasma proteins; 10 μM)?
A: The Bound was >99.97%.

Q: And the Unbound (mouse plasma proteins; 10 μM)?
A: Its Unbound is <0.0272%.

Q: What about the Remaining (mouse plasma proteins; 10 μM) of the same compound?
A: Its Remaining is 97.4 ± 10.7%.
